Patent US11076594B2, “Pyrazolone compound or salt thereof, preparation method therefor, herbicide composition and use thereof” (QINGDAO KINGAGROOT CHEMICAL COMPOUNDS CO., LTD., priority 2015, dated 2021)

Columns and labels:
Assay type in all cases: in vivo
corn gromwell = assay: wheat field resistant broadleaf weed control, greenhouse spray at 4 leaf stage; parameters: key: Level 10: completely dead; Level 9: above 95% growth control rate; Level 8: above 90% growth control rate; Level 7: above 80% growth control rate; Level 6: above 70% growth control rate; Level 5: above 60% growth control rate; Level 4: above 50% growth control rate; Level 3: above 20% growth control rate; Level 2: 5%-20% growth control rate; Level 1: below 5% growth control rate; settings: 250 g/ha of the active substance; 4 weeks after treatment; ALS inhibitor resistant
In short: (§1)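 Seeds sown in soil-filled pots, covered 0.5-2 cm, greenhouse-grown; sprayed at 4 leaf stage (2-3 wk); acetone/methyl oleate emulsion/water formulation; 4 wk greenhouse; fresh wt control rate.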

shepherd's purse = assay: as above; parameters: key: Level 10: completely dead; Level 9: above 95% growth control rate; Level 8: above 90% growth control rate; Level 7: above 80% growth control rate; Level 6: above 70% growth control rate; Level 5: above 60% growth control rate; Level 4: above 50% growth control rate; Level 3: above 20% growth control rate; Level 2: 5%-20% growth control rate; Level 1: below 5% growth control rate; settings: 250 g/ha of the active substance; 4 weeks after treatment; ALS inhibitor resistant
In short: as §1

flixweed = assay: as above; parameters: key: Level 10: completely dead; Level 9: above 95% growth control rate; Level 8: above 90% growth control rate; Level 7: above 80% growth control rate; Level 6: above 70% growth control rate; Level 5: above 60% growth control rate; Level 4: above 50% growth control rate; Level 3: above 20% growth control rate; Level 2: 5%-20% growth control rate; Level 1: below 5% growth control rate; settings: 250 g/ha of the active substance; 4 weeks after treatment; ALS inhibitor resistant
In short: as §1

chickweed = assay: as above; parameters: key: Level 10: completely dead; Level 9: above 95% growth control rate; Level 8: above 90% growth control rate; Level 7: above 80% growth control rate; Level 6: above 70% growth control rate; Level 5: above 60% growth control rate; Level 4: above 50% growth control rate; Level 3: above 20% growth control rate; Level 2: 5%-20% growth control rate; Level 1: below 5% growth control rate; settings: 250 g/ha of the active substance; 4 weeks after treatment; ALS inhibitor resistant
In short: as §1

rice = assay: post-emergence stage experiment, crop (Table 1); parameters: key: Level 10: completely dead; Level 9: above 95% growth control rate; Level 8: above 90% growth control rate; Level 7: above 80% growth control rate; Level 6: above 70% growth control rate; Level 5: above 60% growth control rate; Level 4: above 50% growth control rate; Level 3: above 20% growth control rate; Level 2: 5%-20% growth control rate; Level 1: below 5% growth control rate; settings: post-emergence spray at 4-5 leaf stage, 250 g/ha active ingredient with 450 kg/ha water, rated after 3 weeks in greenhouse
In short: (§2)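 Read-out is growth control rate based on fresh weight, determined 3 weeks after treatment. Plants raised from seed in potted soil (0.5-2 cm cover) in greenhouse were sprayed 2-3 weeks post-sowing at 4-5 leaves with acetone/Tween 80 aqueous compound solutions.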

wheat [1] = assay: wheat field test, crop selectivity, greenhouse spray at 4 leaf stage; settings: 250 g/ha of the active substance; 4 weeks after treatment
In short: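 Potted plants grown in greenhouse were sprayed at the 4 leaf stage, 2–3 weeks post-sowing, with compound in acetone plus methyl oleate emulsion diluted in water. After 4 weeks of further greenhouse culture, growth control was scored as fresh weight control rate.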

Indian mallow = assay: weed control effect in post-emergence stage (Table 1); parameters: key: Level 10: completely dead; Level 9: above 95% growth control rate; Level 8: above 90% growth control rate; Level 7: above 80% growth control rate; Level 6: above 70% growth control rate; Level 5: above 60% growth control rate; Level 4: above 50% growth control rate; Level 3: above 20% growth control rate; Level 2: 5%-20% growth control rate; Level 1: below 5% growth control rate; settings: post-emergence spray at 4-5 leaf stage, 250 g/ha active ingredient with 450 kg/ha water, rated after 3 weeks in greenhouse
In short: as §2

bidens bipinnata = assay: as above; parameters: key: Level 10: completely dead; Level 9: above 95% growth control rate; Level 8: above 90% growth control rate; Level 7: above 80% growth control rate; Level 6: above 70% growth control rate; Level 5: above 60% growth control rate; Level 4: above 50% growth control rate; Level 3: above 20% growth control rate; Level 2: 5%-20% growth control rate; Level 1: below 5% growth control rate; settings: post-emergence spray at 4-5 leaf stage, 250 g/ha active ingredient with 450 kg/ha water, rated after 3 weeks in greenhouse
In short: as §2

echinochloa = assay: as above; parameters: key: Level 10: completely dead; Level 9: above 95% growth control rate; Level 8: above 90% growth control rate; Level 7: above 80% growth control rate; Level 6: above 70% growth control rate; Level 5: above 60% growth control rate; Level 4: above 50% growth control rate; Level 3: above 20% growth control rate; Level 2: 5%-20% growth control rate; Level 1: below 5% growth control rate; settings: post-emergence spray at 4-5 leaf stage, 250 g/ha active ingredient with 450 kg/ha water, rated after 3 weeks in greenhouse
In short: as §2

rorippa indica = assay: as above; parameters: key: Level 10: completely dead; Level 9: above 95% growth control rate; Level 8: above 90% growth control rate; Level 7: above 80% growth control rate; Level 6: above 70% growth control rate; Level 5: above 60% growth control rate; Level 4: above 50% growth control rate; Level 3: above 20% growth control rate; Level 2: 5%-20% growth control rate; Level 1: below 5% growth control rate; settings: post-emergence spray at 4-5 leaf stage, 250 g/ha active ingredient with 450 kg/ha water, rated after 3 weeks in greenhouse
In short: as §2

crab grass = assay: as above; parameters: key: Level 10: completely dead; Level 9: above 95% growth control rate; Level 8: above 90% growth control rate; Level 7: above 80% growth control rate; Level 6: above 70% growth control rate; Level 5: above 60% growth control rate; Level 4: above 50% growth control rate; Level 3: above 20% growth control rate; Level 2: 5%-20% growth control rate; Level 1: below 5% growth control rate; settings: post-emergence spray at 4-5 leaf stage, 250 g/ha active ingredient with 450 kg/ha water, rated after 3 weeks in greenhouse
In short: as §2

foxtail = assay: as above; parameters: key: Level 10: completely dead; Level 9: above 95% growth control rate; Level 8: above 90% growth control rate; Level 7: above 80% growth control rate; Level 6: above 70% growth control rate; Level 5: above 60% growth control rate; Level 4: above 50% growth control rate; Level 3: above 20% growth control rate; Level 2: 5%-20% growth control rate; Level 1: below 5% growth control rate; settings: post-emergence spray at 4-5 leaf stage, 250 g/ha active ingredient with 450 kg/ha water, rated after 3 weeks in greenhouse
In short: as §2

corn = assay: post-emergence stage experiment, crop (Table 1); settings: post-emergence spray at 4-5 leaf stage, 250 g/ha active ingredient with 450 kg/ha water, rated after 3 weeks in greenhouse
In short: as §2

wheat [2] = assay: post-emergence stage experiment, crop (Table 1); settings: post-emergence spray at 4-5 leaf stage, 250 g/ha active ingredient with 450 kg/ha water, rated after 3 weeks in greenhouse
In short: as §2

Compound	corn gromwell weed controlling effect (activity level) (corn gromwell)	shepherd's purse weed controlling effect (activity level) (shepherd's purse)	flixweed weed controlling effect (activity level) (flixweed)	chickweed weed controlling effect (activity level) (chickweed)	effect on crop, Rice (level) (rice)	Wheat (activity level, crop damage) (wheat [1])	weed control effect, Indian mallow (level) (Indian mallow)	weed control effect, Bidens bipinnata (level) (bidens bipinnata)	weed control effect, Echinochloa (level) (echinochloa)	weed control effect, Rorippa indica (level) (rorippa indica)	weed control effect, Crab grass (level) (crab grass)	weed control effect, Green foxtail (level) (foxtail)	effect on crop, Corn (level) (corn)	effect on crop, Wheat (level) (wheat [2])
CCOc1c(C(=O)Oc2c(C(=O)c3ccc(C(F)(F)F)c(-n4cc(C)cn4)c3Cl)c(C)nn2C)cnn1C [Compound 086]	10	10	10	10	2 (Level 2: 5%-20% growth control rate)	0	10	6 (Level 6: above 70% growth control rate)	5 (Level 5: above 60% growth control rate)	10	4 (Level 4: above 50% growth control rate)	2 (Level 2: 5%-20% growth control rate)	0	0
CCn1ncc(C(=O)c2ccc(C(F)(F)F)c(N3CCCC3=O)c2Cl)c1O [Compound 096]	10	10	10	10	9 (Level 9: above 95% growth control rate)	1 (Level 1: below 5% growth control rate)	10	10	10	10	5 (Level 5: above 60% growth control rate)	10	0	1 (Level 1: below 5% growth control rate)
CCc1nn(C)c(OC(=O)c2cn(C)nc2C)c1C(=O)c1ccc(C(F)(F)F)c(N2CCCCC2=O)c1Cl [Compound 111]	10	10	10	10	10	1 (Level 1: below 5% growth control rate)	10	4 (Level 4: above 50% growth control rate)	10	10	3 (Level 3: above 20% growth control rate)	2 (Level 2: 5%-20% growth control rate)	1 (Level 1: below 5% growth control rate)	1 (Level 1: below 5% growth control rate)
CCn1nc(C)c(C(=O)c2ccc(C(F)(F)F)c(N3CCCCCC3=O)c2Cl)c1OC(=O)c1cn(C)nc1C [Compound 119]	10	10	10	10	6 (Level 6: above 70% growth control rate)	1 (Level 1: below 5% growth control rate)	3 (Level 3: above 20% growth control rate)	5 (Level 5: above 60% growth control rate)	10	10	5 (Level 5: above 60% growth control rate)	9 (Level 9: above 95% growth control rate)	3 (Level 3: above 20% growth control rate)	1 (Level 1: below 5% growth control rate)
CCc1nn(C)c(O)c1C(=O)c1ccc(C(F)(F)F)c(N2CCCCCC2=O)c1Cl [Compound 120]	10	10	10	10	5 (Level 5: above 60% growth control rate)	1 (Level 1: below 5% growth control rate)	4 (Level 4: above 50% growth control rate)	4 (Level 4: above 50% growth control rate)	10	10	1 (Level 1: below 5% growth control rate)	7 (Level 7: above 80% growth control rate)	1 (Level 1: below 5% growth control rate)	1 (Level 1: below 5% growth control rate)
